One test concerns PC12 cells. The test can be described thus: KCN-induced necrosis of PC12 cells, LDH release. In kind it is cell-based, rat. The settings on record: Rattus norvegicus, PC-12, 5 h, KCN, PC12, LDH release (Table 5). The method in brief:
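PC12 cells held 1 h in glucose-free DMEM with 2 mM pyruvate and 10% dialyzed FCS, given compounds in DMSO (0.1% final) 30 min before KCN, then exposed 5 h. Necrosis read as LDH released to medium as % of total (0.1% Triton X-100 lysate), A490; protection from LDH release with vs without inhibitor.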
(LDH in the medium is a marker of cell lysis.)

Test [1] has as its system Balb/c mice, myocardial ischemia/reperfusion. Description: Myocardial ischemia/reperfusion in mice. As to conditions: 30 mg/kg IV 20 min before ischemia and at reperfusion; 30 min ischemia, 6 h reperfusion. In kind it is in vivo, mouse. As to the method: Male Balb/c mice (20-25 g; Charles River; Milan; Italy) were housed in a controlled environment and provided with standard rodent chow and water.
Mice were subjected to 30 minutes of myocardial ischemia and 6 hours of reperfusion, using published methodologies (Yet et al, 2001). Study groups consisted of sham, vehicle control, and inhibitor (n=8/group, see below). Briefly, mice were anesthetized with pentobarbital sodium (60 mg/kg body weight) with additional doses given as needed to maintain anesthesia. Mice were intubated and mechanically ventilated with 100% oxygen. Mice received a first IV dose of the active inhibitor 1-(2-(4-methylpiperazin-1-yl)-4,5-dihydro-1H-imidazol-1-yl)propan-1-one (M059-0891) (30 mg/kg) and their chest was opened. […] The area of necrosis, as a % of AAR was quantified. […]
After the reperfusion period, 1 mL/kg of a 4% thioflavin S solution is injected IV in order to delineate the no-reflow area. […] The areas of ischemic and nonischemic regions are computed and expressed as a percentage of the slice, as are the % of necrotic and non-necrotic tissue. […] AAR (unstained blue area) is expressed as a percentage of the LV mass. The extent of necrosis is calculated as a percentage of the LV mass, and the infarct size expressed as a percentage of the AAR (infarct size=extent of necrosis/extent of AAR).

Molecules are shown by their SMILES.

Consider `CCC(=O)N1CCN=C1N1CCN(C)CC1` [M059-0891, 1-(2-(4-methylpiperazin-1-yl)-4,5-dihydro-1H-imidazol-1-yl)propan-1-one], for which the inhibition at 0.0001 µM with PC12 cells (0.1 nM, read-out: % protection at 0.1 nM) was determined as 25%. Also, the inhibition at 0.001 µM with PC12 cells (1 nM, read-out: % protection at 1 nM) is 36%. Moreover, in the test on PC12 cells (10 nM, read-out: % protection At 10 nM), the inhibition at 0.01 µM was found to be 55%. In addition, the inhibition at 0.1 µM with PC12 cells (0.1 μM, read-out: % protection at 0.1 μM) was determined as 84%. Moreover, the inhibition at 1 µM in the test with PC12 cells (1 μM, read-out: % protection at 1 μM) is 85%. In addition, the “necrosis and infarct size” value in test [1] is “significant reduction”.
